Measured values from US11639372B1, “Zinc-charged peptides for the treatment of cancer and alzheimer's disease” (priority 2021, dated 2023).
Numbered stars: 1 amine (or outer) side, 2 acyl side, 3 side chain; on linkers, the order of the positions; unused ones are H or OH. Bridge positions count the residues as written; N and C are the ends. Square brackets hold non-standard residues; d marks the D form. Ends that are not written are not given here. Peptide text beside a SMILES is read from it. I, II: the chains in the order shown. Actinocin(9to1) = Cc1c2oc3c(C)ccc(C(=O)[*:1])c3nc-2c(C(=O)[*:2])c(N)c1=O; NMeV = CN[C@H](C(=O)O)C(C)C; Sar = CNCC(=O)O

What was measured:
HT-29 colon cancer cells [1] = assay: apoptosis in HT-29 cells, combination with chemotherapy drugs; assay type: cell-based; conditions: for interaction of chemotherapy drug with the zinc-charged peptide: drug 6 μg per ml 12 hours, then zinc-charged 4H 4 μM for 6 hours
Procedure: To test this, HT-29 colon cancer cells were pre-incubated with various chemotherapy drugs at 6 μg per ml for 12 hours, then zinc-charged 4H at 4 μM was added for an additional 6 hours. Most chemotherapy drugs take up to 48 hours to see substantial apoptosis, and as such, the cells were pre-incubated with chemotherapy drugs first. The chemotherapy drugs tested included actinomycin (“A”), carmustine (“C”), docorubicin (“Dox”), genistin (“G”), 5-FU, and Tarceva.

[2] = water solubility of the peptides; assay type: physicochemical; conditions: uncharged peptide, last amino acid changed
[3] = absorption by gastrointestinal tract (earlier work); assay type: in vivo; conditions: before enzymatic digestion with papain
[4] = system: various cancer cell lines; assay: apoptosis-inducing activity on cancer cell lines (earlier work); assay type: cell-based; conditions: in vitro cell culture
From the text: Cow milk is known to contain numerous proteins and other beneficial compounds for humans.
Since alpha-lactalbumin is the major milk protein present in milk, this protein was first tested to determine if the bioactive peptides were derived from alpha-Lactalbumin. Purified alpha-lactalbumin was therefore treated with EDTA and zinc acetate.

HT-29 cancer cells = assay: biochemical analysis of HT-29 cell lysate (lactate, ATP, G-6-P); assay type: cell-based
Procedure: To determine the mechanism of induction of apoptosis to HT-29 cancer cells by the zinc-charged peptides, a low concentration (1 μM) of zinc-charged 4H was incubated with HT-29 cancer cells, followed by biochemical analysis of the cell lysate of the HT-29 cancer cells.
Furthermore, the decreased lactate was associated with a lower ATP level and a lower Glucose-6-phosphate (G-6-P) level in HT-29 cells.

normal WI38 lung cells = assay: glycolysis (lactate) inhibition in cell lysate, WI38; assay type: cell-based
Procedure: (§1) The zinc-charged peptides ability to inhibit glycolysis in other cancer cell lines, such as lung cancer, compared to their normal counterparts was also tested.

HT-29 colon cancer cells [5] = assay: glycolysis (lactate) inhibition in cell lysate, HT-29; assay type: cell-based
[6] = glycolysis and ATP in brain and muscle of normal mice fed zinc-charged 4H; assay type: in vivo; conditions: 0.5 mg per mouse per day, 5 days, oral
Procedure: To further study this observed phenomena in vivo, normal mice were fed with the zinc-charged 4H for five days, and the glycolysis of normal brain cells were studied. FIG. 9 depicts the results of this study. For this study, two groups of mice having four mice per group were compared, one being the control and the other being fed 0.5 mg of zinc-charged 4H per mouse per day for 5 days orally. After 5 days, brain and muscle tissue was collected, homogenized, and assayed for glycolysis rate.
In mice fed with 0.5 mg of zinc-charged 4H for 5 days, the brain glycolysis of these mice was enhanced by 44%.

hexokinase II [7] = target: T1, hexokinase II (Homo sapiens, UniProt P52789); assay: in vitro hexokinase II assay; assay type: biochemical
T1 sequence (P52789 1-917): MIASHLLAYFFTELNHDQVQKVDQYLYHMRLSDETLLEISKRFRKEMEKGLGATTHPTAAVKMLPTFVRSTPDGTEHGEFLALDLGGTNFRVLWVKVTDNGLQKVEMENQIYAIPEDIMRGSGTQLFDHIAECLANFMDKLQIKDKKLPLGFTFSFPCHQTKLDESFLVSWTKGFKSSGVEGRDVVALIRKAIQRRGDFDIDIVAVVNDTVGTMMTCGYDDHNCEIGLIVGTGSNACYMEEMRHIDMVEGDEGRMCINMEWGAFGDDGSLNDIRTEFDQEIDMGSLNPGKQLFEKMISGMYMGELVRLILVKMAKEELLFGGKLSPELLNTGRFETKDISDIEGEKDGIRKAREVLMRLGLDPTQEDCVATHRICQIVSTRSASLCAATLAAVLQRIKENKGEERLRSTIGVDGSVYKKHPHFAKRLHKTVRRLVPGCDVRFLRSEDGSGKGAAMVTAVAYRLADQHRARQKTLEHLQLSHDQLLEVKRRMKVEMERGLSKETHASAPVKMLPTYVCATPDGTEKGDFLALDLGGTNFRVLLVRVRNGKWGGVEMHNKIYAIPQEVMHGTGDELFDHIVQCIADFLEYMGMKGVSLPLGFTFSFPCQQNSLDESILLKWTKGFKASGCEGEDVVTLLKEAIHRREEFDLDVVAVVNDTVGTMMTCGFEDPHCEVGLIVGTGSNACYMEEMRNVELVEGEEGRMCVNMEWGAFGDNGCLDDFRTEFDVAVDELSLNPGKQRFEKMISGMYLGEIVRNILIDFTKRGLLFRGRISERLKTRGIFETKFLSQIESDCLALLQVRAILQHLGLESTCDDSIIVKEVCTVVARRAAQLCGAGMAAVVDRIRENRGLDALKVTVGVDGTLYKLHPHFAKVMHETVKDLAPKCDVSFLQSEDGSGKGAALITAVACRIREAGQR
Procedure: To test confirm that the zinc-charged peptides inhibit hexokinase II resulting in the inhibition of glycolysis, an in vitro hexokinase II assay was performed. FIG. 7 depicts the results of the in vitro hexokinase II assay. In this test, it was observed that hexokinase II was inhibited by zinc-charged 4H in a dose-dependent manner. […] These findings confirm that the zinc-charged peptides inhibit glycolysis at the hexokinase II enzyme level.

[8] = system: normal colon cell line CCD18Co; assay: glycolysis (lactate) inhibition in cell lysate, CCD18Co; assay type: cell-based
Calu-1 lung cancer cells = assay: glycolysis (lactate) inhibition in cell lysate, Calu-1; assay type: cell-based
Procedure: as §1

hexokinase II [9] = target: T1, hexokinase II; assay: subcellular hexokinase II activity in HT-29 cells; assay type: cell-based; conditions: HT-29, 1 μM, 5 hours
Procedure: FIGS. 14-16 depicts the testing results validating that the zinc-charged peptides inhibit each of these three bioenergetic pathways. FIG. 14 depicts the subcellular hexokinase II activity in mitochondria, cytosol, and microsome to determine whether the zinc-charged peptides inhibit the hexokinase II activity in mitochondria. For this test, HT-29 cancer cells were incubated with zinc-charged 4H at 1 μM for 5 hours. After incubation, sub-cellular fractions including cytosol, microsome, and mitochondria were prepared and the hexokinase II activity on these sub-cellular fractions were tested.

O=NN(CCCl)C(=O)NCCCl [carmustine]
interaction of chemotherapy drug with the zinc-charged peptide (HT-29 colon cancer cells [1]): synergistic

O=c1c(-c2ccc(O)cc2)coc2cc(O[C@@H]3O[C@H](CO)[C@@H](O)[C@H](O)[C@H]3O)cc(O)c12 [genistin]
interaction of chemotherapy drug with the zinc-charged peptide (HT-29 colon cancer cells [1]): synergistic

EYGLFQISNKK [4H3, E-Y-G-L-F-Q-I-S-N-K-K]
water solubility compared with 4H [2]: more water-soluble

zinc-bound alpha-lactalbumin: purified alpha-lactalbumin treated with EDTA and zinc acetate
absorption by gastrointestinal tract [3]: unable to be absorbed
apoptosis-inducing activity on various cancer cell lines [4]: contain apoptosis-inducing activity

COc1cccc2c1C(=O)c1c(O)c3c(c(O)c1C2=O)C[C@@](O)(C(=O)CO)C[C@@H]3O[C@H]1C[C@H](N)[C@H](O)[C@H](C)O1 [doxorubicin]
interaction of chemotherapy drug with the zinc-charged peptide (HT-29 colon cancer cells [1]): synergistic

O=c1[nH]cc(F)c(=O)[nH]1 [5-FU]
interaction of chemotherapy drug with the zinc-charged peptide (HT-29 colon cancer cells [1]): synergistic

zinc-charged 4H: peptide E-Y-G-L-F-Q-I-S-N-K-L (SEQ. ID NO. 1) charged with zinc ions by EDTA then zinc acetate treatment (EYGLFQISNKL; also: charged with zinc ions)
lactate lower than control cells (HT-29 cancer cells; 1 μM, HT-29 cell lysate): 81.4%
reduction of intracellular G-6-P level (HT-29 cancer cells; HT-29, after 6 hours of incubation): 39.6%
inhibition of glycolysis (normal WI38 lung cells): 0%
inhibition of glycolysis (HT-29 colon cancer cells [5]): up to 34.7%
enhancement of brain glycolysis [6]: 44%
increase in brain ATP level [6]: 31.4%
increase of muscle glycolysis [6]: 15%
hexokinase II inhibition (hexokinase II [7]; 5 μM): 28.6%
hexokinase II inhibition (hexokinase II [7]; 10 μM): 79.1%
hexokinase II inhibition (hexokinase II [7]; 20 μM): 94.6%
inhibition of glycolysis [8]: 10.5%
inhibition of glycolysis (Calu-1 lung cancer cells): 11.1%
percentage of apoptosis in HT-29 cells when added to chemotherapy drugs (HT-29 colon cancer cells [1]; zinc-charged 4H 4 μM, 6 hours after 12 hours drug pre-incubation): significantly increased
inhibition of mitochondria associated hexokinase II activity (hexokinase II [9]): 53%

Cc1c2oc3c(C)ccc(C(=O)N[C@@H]4C(=O)N[C@H](C(C)C)C(=O)N5CCC[C@H]5C(=O)N(C)CC(=O)N(C)[C@@H](C(C)C)C(=O)O[C@@H]4C)c3nc-2c(C(=O)N[C@@H]2C(=O)N[C@H](C(C)C)C(=O)N3CCC[C@H]3C(=O)N(C)CC(=O)N(C)[C@@H](C(C)C)C(=O)O[C@@H]2C)c(N)c1=O [actinomycin] (I: T[dV]P[Sar][NMeV] / II: T[dV]P[Sar][NMeV]; ester I:1-I:C, II:1-II:C; linker I:N-II:N via Actinocin(9to1))
interaction of chemotherapy drug with the zinc-charged peptide (HT-29 colon cancer cells [1]): synergistic
